Counter-ions that a name gives are not always drawn.

What all share (type): cell-based
One series deals with OVCAR-4. The experiment in a line: Cell viability (CellTiterGlo), OVCAR-4. The note with it: Homo sapiens. As to the method:
(§1) Candidate compounds are tested in 384-well plates for effects on cell viability in the presence or absence of an appropriate conventional anticancer drug. Cell viability is indirectly monitored in the first instance using CellTiterGlo (Promega Corp., Madison, WI) (Table D). To determine if cell death is apoptotic, the induction of caspase activity is assessed utilizing the CaspaseGlo Assay system (Promega Corp., Madison, WI) (Table E). Cell viability is monitored 1 to 3 days after addition of compounds and conventional drugs. […] A compound of any of the formulae as disclosed herein is evaluated in combination with said anticancer drug to determine which ML-IAP antagonist can sensitize most efficaciously. Select candidate compounds are tested in 14 point drug dose response (DDR) curves in a 384-well format in order to establish potency in combination with decreasing concentrations of lung cancer relevant drug regimens. Furthermore, checker-board titrations of a conventional drug and the candidate molecules are performed to search for synergy (using ISOBOLOGRAM analysis). Compounds and combinations as described herein are also tested for cytotoxicity against normal human cells (e.g. primary fibroblasts, lymphocytes, hepatocytes, epithelial and endothelial cells) using known methods.
(§2) Cell viability was evaluated following treatment with a compound as disclosed in Table D. Viability of cancer cells following treatment is indicated according to the following legend: […]
On the technique in general: ATP-based viability assays read luminescence as a measure of living cells.

A further series concerns SKOV-3. The series can be described thus: Cell viability (CellTiterGlo), SKOV-3. To be noted: Homo sapiens, SK-OV-3. The protocol: as §1, §2
Another series deals with SKOV-3 cancer cell lines. The experiment in a line: SKOV-3 cell viability after treatment with 10 μM test compound. The note with it: for % viability after treatment with 10 micromolar of test compound (SKOV-3 cells): 10 micromolar test compound, hydrochloride; for viability at 10 µM: Homo sapiens, SK-OV-3, 10 micromolar test compound, SKOV-3 cells. The protocol:
SKOV-3 cancer cell lines were treated with a test compound, either as a pure enantiomer or a mixture of stereoisomers, at a concentration of 10 μM. Cell viability was evaluated following treatment with a compound as disclosed in Table B. Viability of cancer cells following treatment is indicated according to the following legend:
A=0-25% viability B=26-50% viability C=>50% viability

Take `C=CCC1C[C@@H]2SCC[C@H](NC(=O)[C@H](C)NC)C(=O)N2[C@@H]1C(=O)N[C@@H]1CCCc2ccccc21` (stereo partly drawn) [Compound 32, (4S,9aS)-8,8-allyl-4-((S)-2-(methylamino)propanamido)-5-oxo-N—((R)-1,2,3,4-tetrahydronaphthalen-1-yl)octahydropyrrolo[2,1-b][1,3]thiazepine-7-carboxamide hydrochloride]: the IC50 (commonly the point on the concentration scale where inhibition reaches its midpoint) in the series with OVCAR-4 is above 1 µM; in the series on SKOV-3, 0.01 to 0.1 µM. The “% viability after treatment with 10 micromolar of test compound (SKOV-3 cells)” value (“% viability after treatment” for short) in the series with SKOV-3 cancer cell lines was “A (A=0-25% viability)”.
As for `CN[C@@H](C)C(=O)N[C@H]1Cc2c([nH]c3ccccc23)[C@H]2CC(C)(C)C(C(=O)N[C@@H]3CCCc4ccccc43)N2C1=O` (stereo in doubt) [Compound 2, (3R, 6S,12bR)-2,2-dimethyl-6-((S)-2-(methylamino)propanamido)-5-oxo-N—((R)-1,2,3,4-tetrahydronaphthalen-1-yl)-1,2,3,5,6,7,12,12b-octahydropyrrolo[1′,2′:1,2]azepino[3,4-b]indole-3-carboxamide hydrochloride], the IC50 in the series on OVCAR-4 and in the series with SKOV-3 was above 1 µM throughout. The viability – broadly, the share of living cells, or the viability signal relative to a control – at 10 µM in the series on SKOV-3 cancer cell lines lay within 26 to 50%.
For the molecule `CN[C@@H](C)C(=O)N[C@H]1CC(CSc2ccccc2)O[C@H]2CC(C)(C)C(C(=O)N[C@@H]3CCCc4ccccc43)N2C1=O` (mixture of isomers) [Compound 75, rac-(4R)-8,8-dimethyl-4-((R)-2-(methylamino)propanamido)-5-oxo-2-((phenylthio)methyl)-N—((S)-1,2,3,4-tetrahydronaphthalen-1-yl)octahydropyrrolo[2,1-b][1,3]oxazepine-7-carboxamide hydrochloride], the IC50 with OVCAR-4 and in the series on SKOV-3 was 0.01 to 0.1 µM in each case. In the series on SKOV-3 cancer cell lines, this molecule showed a viability at 10 µM of 0 to 25%.
On to `CN[C@@H](C)C(=O)N[C@H]1CCO[C@H]2CC(C)(C)[C@@H](C(=O)N[C@@H]3CCSc4ccccc43)N2C1=O` [Compound 69, (4S,7S,9aS)-8,8-dimethyl-4-((S)-2-(methylamino)propanamido)-5-oxo-N—((R)-thiochroman-4-yl)octahydropyrrolo[2,1-b][1,3]oxazepine-7-carboxamide hydrochloride], for which the IC50 in the series with OVCAR-4 was in the range of 0.1 to 1 µM; in the series with SKOV-3 it was 0.01 to 0.1 µM. For the same molecule, the viability at 10 µM in the series with SKOV-3 cancer cell lines is 0 to 25%.
The like results for `CN[C@@H](C)C(=O)N[C@H]1CCOC2CC(C)(C)[C@@H](C(=O)Nc3ccccc3-c3ncccn3)N2C1=O` (stereo partly drawn) [Compound 55, (4S,7S)-8,8-dimethyl-4-((S)-2-(methylamino)propanamido)-5-oxo-N-(2-(pyrimidin-2-yl)phenyl)octahydropyrrolo[2,1-b][1,3]oxazepine-7-carboxamide hydrochloride] were, in that order, above 1 µM, above 1 µM and above 50%.
For the molecule `CN[C@@H](C)C(=O)N[C@H]1Cc2ccc(OC)cc2[C@H]2CC(C)(C)[C@@H](C(=O)N[C@@H]3CCCc4ccccc43)N2C1=O` [Compound 11, (6S,11bR)-10-methoxy-2,2-dimethyl-6-((S)-2-(methylamino)propanamido)-5-oxo-N—((R)-1,2,3,4-tetrahydronaphthalen-1-yl)-2,3,5,6,7,11b-hexahydro-1H-benzo[c]pyrrolo[1,2-a]azepine-3-carboxamide hydrochloride], the IC50 in the series on OVCAR-4 and in the series on SKOV-3 was above 1 µM each time. In the series on SKOV-3 cancer cell lines, this molecule returned a viability at 10 µM of 26 to 50%.
As for `CN[C@@H](C)C(=O)N[C@H]1CCS[C@H]2CC(C(C)C)(C(C)C)[C@@H](C(=O)N[C@@H]3CCCc4ccccc43)N2C1=O` [Compound 41, 4S,9aS)-8,8-diisopropyl-4-((S)-2-(methylamino)propanamido)-5-oxo-N—((R)-1,2,3,4-tetrahydronaphthalen-1-yl)octahydropyrrolo[2,1-b][1,3]thiazepine-7-carboxamide hydrochloride], the IC50 with OVCAR-4 and in the series with SKOV-3 was above 1 µM throughout. Further, in the series with SKOV-3 cancer cell lines, the “% viability after treatment” value was “A (A=0-25% viability)”.
Consider `C=CCC1C[C@@H]2OCC[C@H](NC(=O)[C@H](C)NC)C(=O)N2[C@@H]1C(=O)N[C@@H]1CCCc2ccccc21` (stereo partly drawn) [Compound 15, (4S,9aS)-8,8-allyl-4-((S)-2-(methylamino)propanamido)-5-oxo-N—((R)-1,2,3,4-tetrahydronaphthalen-1-yl)octahydropyrrolo[2,1-b][1,3]oxazepine-7-carboxamide hydrochloride], for which the IC50 in the series with OVCAR-4 was above 1 µM; with SKOV-3, 0.01 to 0.1 µM. The molecule further yielded a viability at 10 µM in the series on SKOV-3 cancer cell lines of 26 to 50%.
Consider `C=CCC1(CC=C)C[C@@H]2OCC[C@H](NC(=O)[C@H](C)NC)C(=O)N2C1C(=O)N[C@@H]1CCCc2ccccc21` (stereo partly drawn) [Compound 12, (4S,9aS)-8,8-diallyl-4-((S)-2-(methylamino)propanamido)-5-oxo-N—((R)-1,2,3,4-tetrahydronaphthalen-1-yl)octahydropyrrolo[2,1-b][1,3]oxazepine-7-carboxamide hydrochloride], for which the viability at 10 µM in the series with SKOV-3 cancer cell lines was in the range of 26 to 50%.
Take `C=CCC1(CC=C)C[C@@H]2OCC[C@H](NC(=O)[C@H](C)NC)C(=O)N2[C@@H]1C(=O)NC(c1ccccc1)c1ccccc1` [Compound 49, (4S)-8,8-diallyl-N-benzhydryl-4-((S)-2-(methylamino)propanamido)-5-oxooctahydropyrrolo[2,1-b][1,3]oxazepine-7-carboxamide hydrochloride]: the “% viability after treatment” value in the series on SKOV-3 cancer cell lines is “B (B=26-50% viability)”.
Regarding `C=CCC1(CC=C)C[C@@H]2SCC[C@H](NC(=O)[C@H](C)NC)C(=O)N2[C@H]1C(=O)N[C@@H]1CCCc2ccccc21` [Compound 28, (4S,9aS)-8,8-diallyl-4-((S)-2-(methylamino)propanamido)-5-oxo-N—((R)-1,2,3,4-tetrahydronaphthalen-1-yl)octahydropyrrolo[2,1-b][1,3]thiazepine-7-carboxamide hydrochloride], in the series on SKOV-3 cancer cell lines, the viability at 10 µM was in the range of 26 to 50%.
Regarding `CN[C@@H](C)C(=O)N[C@H]1CCO[C@H]2CC(C(C)C)(C(C)C)[C@@H](C(=O)NC(c3ccccc3)c3ccccc3)N2C1=O` [Compound 61, (4S)—N-benzhydryl-8,8-diisopropyl-4-((S)-2-(methylamino)propanamido)-5-oxooctahydropyrrolo[2,1-b][1,3]oxazepine-7-carboxamide hydrochloride], the “% viability after treatment” value in the series with SKOV-3 cancer cell lines is given as “B (B=26-50% viability)”.
With `C=CCC1C[C@@H]2SCC[C@H](NC(=O)[C@H](C)NC)C(=O)N2[C@@H]1C(=O)N[C@@H]1CCCc2ccccc21` (stereo partly drawn) [Compound 30, (4S,9aS)-8,8-allyl-4-((S)-2-(methylamino)propanamido)-5-oxo-N—((R)-1,2,3,4-tetrahydronaphthalen-1-yl)octahydropyrrolo[2,1-b][1,3]thiazepine-7-carboxamide hydrochloride], the “% viability after treatment” value with SKOV-3 cancer cell lines was “B (B=26-50% viability)”.
As to `CN[C@@H](C)C(=O)N[C@H]1CCO[C@H]2CC(CCc3ccccc3)(CCc3ccccc3)C(C(=O)N[C@@H]3CCCc4ccccc43)N2C1=O` (stereo partly drawn) [Compound 23, (4S,9aS)-4-((S)-2-(methylamino)propanamido)-5-oxo-8,8-diphenethyl-N—((R)-1,2,3,4-tetrahydronaphthalen-1-yl)octahydropyrrolo[2,1-b][1,3]oxazepine-7-carboxamide hydrochloride], in the series with SKOV-3 cancer cell lines, the viability at 10 µM fell in the range of 26 to 50%.
On to `CN[C@@H](C)C(=O)N[C@H]1CCOC2c3ccncc3C(C(=O)N[C@@H]3CCCc4ccccc43)N2C1=O` (stereo partly drawn) [Compound 4, (4S)-4-((S)-2-(methylamino)propanamido)-5-oxo-N—((R)-1,2,3,4-tetrahydronaphthalen-1-yl)-2,3,4,5,7,11b-hexahydropyrido[4′,3′:3,4]pyrrolo[2,1-b][1,3]oxazepine-7-carboxamide dihydrochloride], for which the viability at 10 µM in the series on SKOV-3 cancer cell lines is above 50%.
For the molecule `CN[C@@H](C)C(=O)N[C@H]1Cc2cc(OC)ccc2[C@H]2CC(C)(C)C(C(=O)NC(c3ccccc3)c3ccccc3)N2C1=O` (stereo partly drawn) [Compound 5, (6S,11bR)—N-benzhydryl-9-methoxy-2,2-dimethyl-6-((S)-2-(methylamino)propanamido)-5-oxo-2,3,5,6,7,11b-hexahydro-1H-benzo[c]pyrrolo[1,2-a]azepine-3-carboxamide], in the series on SKOV-3 cancer cell lines, the viability at 10 µM was above 50%.
`C=CCC1C[C@@H]2OCC[C@H](NC(=O)[C@H](C)NC)C(=O)N2[C@H]1C(=O)N[C@@H]1CCCc2ccccc21` (stereo partly drawn) [Compound 13, (4S,9aS)-8,8-allyl-4-((S)-2-(methylamino)propanamido)-5-oxo-N—((R)-1,2,3,4-tetrahydronaphthalen-1-yl)octahydropyrrolo[2,1-b][1,3]oxazepine-7-carboxamide hydrochloride] had a viability at 10 µM in the series on SKOV-3 cancer cell lines of 26 to 50%.
For `CCC1(CC)C[C@@H]2OCC[C@H](NC(=O)[C@H](C)NC)C(=O)N2[C@H]1C(=O)N[C@@H]1CCCc2ccccc21` [Compound 19, (4S)-8,8-diethyl-4-((S)-2-(methylamino)propanamido)-5-oxo-N—((R)-1,2,3,4-tetrahydronaphthalen-1-yl)octahydropyrrolo[2,1-b][1,3]oxazepine-7-carboxamide hydrochloride], in the series on SKOV-3 cancer cell lines, the viability at 10 µM lay in the range of 26 to 50%.

For the origin of these results see patent US20230295181A1, “INHIBITOR OF APOPTOSIS (IAP) PROTEIN ANTAGONISTS” (Sanford Burnham Prebys Medical Discovery Institute, priority 2020, published 2023).
